Laboratory results published in patent US12486227B2, “Small molecules for cancer therapy that reduce the expression of transcription factors KLF5 and EGR-1” (University of Florida Research Foundation, Incorporated, priority 2019, dated 2025).

Tested on: DLD-1 and HCT116 CRC cells
Test: Cell cycle analysis by flow cytometry (propidium iodide)
Assay type: cell-based, human
Conditions: 10 μM, over three days, vs vehicle, ML264, SR15006
Protocol: SR18662 alters the cell cycle pattern of CRCs. […] We have also evaluated the impact of SR15006 and SR18662 on cell cycle progression. We treated DLD-1 and HCT116 CRC cells over the course of three days with vehicle or 1 μM or 10 μM of test compound and then analyzed cell cycle using flow cytometry.
Cell proliferation, cell cycle and apoptosis assays. For cell proliferation experiments, cell cycle, and apoptosis determination, DLD-1 and HCT116 cells were treated with 1 or 10 μM of each compound or with vehicle (DMSO). The cells were collected at 24, 48, and 72 h post-treatment and analyzed as previously described (24). Each experiment was performed in triplicate.

How did the subG1 population turn out when `CS(=O)(=O)N1CCN(C(=O)CNC(=O)/C=C/c2ccc(Cl)c(Cl)c2)CC1` [Example 9, (E)-3-(3,4-dichlorophenyl)-N-(2-(4-(methylsulfonyl)piperazin-1-yl)-2-oxoethyl)acrylamide] was run?
The subG1 population was “significant increase in the number of cells within the subG1 population”.
